# Results reported in ChEMBL document CHEMBL1629583, “Establishment of in vitro susceptibility testing methodologies and comparative activities of piperacillin in combination with the penem {beta}-lactamase inhibitor BLI-489” (2009).
# Legend:
# Type in all cases: functional
# Klebsiella oxytoca = assay: Antimicrobial activity against Klebsiella oxytoca clinical isolate after 18 to 22 hrs by broth microdilution method
# [1] = tested on: Peptostreptococcus anaerobius; assay: Antimicrobial activity against Peptostreptococcus anaerobius clinical isolate after 18 to 22 hrs by broth microdilution method
# Parvimonas micra = assay: Antimicrobial activity against Peptostreptococcus micros clinical isolate after 18 to 22 hrs by broth microdilution method
# Serratia marcescens [2] = assay: Antimicrobial activity against Serratia marcescens clinical isolate after 18 to 22 hrs by broth microdilution method
# Moraxella catarrhalis = assay: Antimicrobial activity against Moraxella catarrhalis clinical isolate after 18 to 22 hrs by broth microdilution method
# Clostridium perfringens = assay: Antimicrobial activity against Clostridium perfringens clinical isolate after 18 to 22 hrs by broth microdilution method
# Klebsiella pneumoniae [3] = assay: Antimicrobial activity against class A extended spectrum beta-lactamase- and class D OXA- producing Klebsiella pneumoniae clinical isolate after 18 to 22 hrs by broth microdilution method
# [4] = tested on: Haemophilus parainfluenzae; assay: Antimicrobial activity against Haemophilus parainfluenzae clinical isolate after 18 to 22 hrs by broth microdilution method
# [5] = tested on: Stenotrophomonas maltophilia; assay: Antimicrobial activity against Stenotrophomonas maltophilia clinical isolate after 18 to 22 hrs by broth microdilution method
# Bacteroides fragilis = assay: Antimicrobial activity against Bacteroides fragilis clinical isolate after 18 to 22 hrs by broth microdilution method
# Escherichia coli [6] = assay: Antimicrobial activity against class A extended spectrum beta-lactamase- and class D OXA- producing Escherichia coli clinical isolate after 18 to 22 hrs by broth microdilution method
# Klebsiella pneumoniae [7] = assay: Antimicrobial activity against class A extended spectrum beta-lactamase- producing Klebsiella pneumoniae clinical isolate after 18 to 22 hrs by broth microdilution method
# Citrobacter freundii [8] = assay: Antimicrobial activity against AmpC beta-lactamase-producing Citrobacter freundii clinical isolate after 18 to 22 hrs by broth microdilution method
# Klebsiella pneumoniae [9] = assay: Antimicrobial activity against Klebsiella pneumoniae clinical isolate after 18 to 22 hrs by broth microdilution method
# Haemophilus influenzae [10] = assay: Antimicrobial activity against beta-lactamase-negative Haemophilus influenzae clinical isolate after 18 to 22 hrs by broth microdilution method
# Proteus vulgaris = assay: Antimicrobial activity against Proteus vulgaris clinical isolate after 18 to 22 hrs by broth microdilution method
# Burkholderia cepacia = assay: Antimicrobial activity against Burkholderia cepacia clinical isolate after 18 to 22 hrs by broth microdilution method
# Proteus mirabilis = assay: Antimicrobial activity against Proteus mirabilis clinical isolate after 18 to 22 hrs by broth microdilution method
# Acinetobacter baumannii = assay: Antimicrobial activity against Acinetobacter baumannii clinical isolate after 18 to 22 hrs by broth microdilution method
# Haemophilus influenzae [11] = assay: Antimicrobial activity against beta-lactamase-producing Haemophilus influenzae clinical isolate after 18 to 22 hrs by broth microdilution method
# Providencia rettgeri = assay: Antimicrobial activity against Providencia rettgeri clinical isolate after 18 to 22 hrs by broth microdilution method
# Acinetobacter junii = assay: Antimicrobial activity against Acinetobacter junii clinical isolate after 18 to 22 hrs by broth microdilution method
# Bacteroides uniformis = assay: Antimicrobial activity against Bacteroides uniformis clinical isolate after 18 to 22 hrs by broth microdilution method
# [12] = tested on: Acinetobacter calcoaceticus; assay: Antimicrobial activity against Acinetobacter calcoaceticus clinical isolate after 18 to 22 hrs by broth microdilution method
# Serratia marcescens [13] = assay: Antimicrobial activity against AmpC beta-lactamase-producing Serratia marcescens clinical isolate after 18 to 22 hrs by broth microdilution method
# Escherichia coli [14] = assay: Antimicrobial activity against class A extended spectrum beta-lactamase- producing Escherichia coli clinical isolate after 18 to 22 hrs by broth microdilution method
# [15] = tested on: Acinetobacter haemolyticus; assay: Antimicrobial activity against Acinetobacter haemolyticus clinical isolate after 18 to 22 hrs by broth microdilution method
# Morganella morganii = assay: Antimicrobial activity against Morganella morganii clinical isolate after 18 to 22 hrs by broth microdilution method
# Providencia stuartii = assay: Antimicrobial activity against Providencia stuartii clinical isolate after 18 to 22 hrs by broth microdilution method
# Acinetobacter johnsonii = assay: Antimicrobial activity against Acinetobacter johnsonii clinical isolate after 18 to 22 hrs by broth microdilution method
# Citrobacter freundii [16] = assay: Antimicrobial activity against Citrobacter freundii clinical isolate after 18 to 22 hrs by broth microdilution method
# Klebsiella aerogenes [17] = assay: Antimicrobial activity against Enterobacter aerogenes clinical isolate after 18 to 22 hrs by broth microdilution method
# Klebsiella aerogenes [18] = assay: Antimicrobial activity against AmpC beta-lactamase-producing Enterobacter aerogenes clinical isolate after 18 to 22 hrs by broth microdilution method
# Enterobacter cloacae [19] = assay: Antimicrobial activity against AmpC beta-lactamase-producing Enterobacter cloacae clinical isolate after 18 to 22 hrs by broth microdilution method
# Acinetobacter lwoffii = assay: Antimicrobial activity against Acinetobacter lwoffii clinical isolate after 18 to 22 hrs by broth microdilution method
# Pseudomonas aeruginosa = assay: Antimicrobial activity against Pseudomonas aeruginosa clinical isolate after 18 to 22 hrs by broth microdilution method
# Enterobacter cloacae [20] = assay: Antimicrobial activity against Enterobacter cloacae clinical isolate after 18 to 22 hrs by broth microdilution method
# Citrobacter koseri = assay: Antimicrobial activity against Citrobacter koseri clinical isolate after 18 to 22 hrs by broth microdilution method
# Escherichia coli [21] = assay: Antimicrobial activity against AmpC beta-lactamase-producing Escherichia coli clinical isolate after 18 to 22 hrs by broth microdilution method
# Klebsiella pneumoniae [22] = assay: Antimicrobial activity against AmpC- producing Klebsiella pneumoniae clinical isolate after 18 to 22 hrs by broth microdilution method
# [23] = tested on: Bacteroides thetaiotaomicron; assay: Antimicrobial activity against Bacteroides thetaiotaomicron clinical isolate after 18 to 22 hrs by broth microdilution method
smiles,measurement,setting,value
C[C@@H](O)[C@H]1C(=O)N2C(C(=O)O)=C(SCCNC=N)C[C@H]12 [IMIPENEM ANHYDROUS],MIC50,Klebsiella oxytoca,0.25 µg/mL
same,MIC90,Klebsiella oxytoca,0.5 µg/mL
same,MIC50,[1],0.03 µg/mL
same,MIC90,[1],0.06 µg/mL
same,MIC50,Parvimonas micra,0.06 µg/mL
same,MIC90,Parvimonas micra,0.12 µg/mL
same,MIC50,Serratia marcescens [2],1 µg/mL
same,MIC90,Serratia marcescens [2],2 µg/mL
same,MIC,Moraxella catarrhalis,≤ 0.03 µg/mL
same,MIC50,Moraxella catarrhalis,≤ 0.03 µg/mL
same,MIC90,Moraxella catarrhalis,0.06 µg/mL
same,MIC50,Clostridium perfringens,0.06 µg/mL
same,MIC90,Clostridium perfringens,0.06 µg/mL
same,MIC50,Klebsiella pneumoniae [3],0.25 µg/mL
same,MIC90,Klebsiella pneumoniae [3],0.5 µg/mL
same,MIC50,[4],0.25 µg/mL
same,MIC90,[4],0.5 µg/mL
same,MIC,[5],> 32 µg/mL
same,MIC50,[5],> 32 µg/mL
same,MIC90,[5],> 32 µg/mL
same,MIC50,Bacteroides fragilis,0.25 µg/mL
same,MIC90,Bacteroides fragilis,0.5 µg/mL
same,MIC,Escherichia coli [6],0.12 µg/mL
same,MIC50,Escherichia coli [6],0.12 µg/mL
same,MIC90,Escherichia coli [6],0.25 µg/mL
same,MIC50,Klebsiella pneumoniae [7],0.25 µg/mL
same,MIC90,Klebsiella pneumoniae [7],0.5 µg/mL
same,MIC,Citrobacter freundii [8],0.5 µg/mL
same,MIC50,Citrobacter freundii [8],0.5 µg/mL
same,MIC90,Citrobacter freundii [8],2 µg/mL
same,MIC50,Klebsiella pneumoniae [9],0.25 µg/mL
same,MIC90,Klebsiella pneumoniae [9],0.5 µg/mL
same,MIC,Haemophilus influenzae [10],0.12 µg/mL
same,MIC50,Haemophilus influenzae [10],0.05 µg/mL
same,MIC90,Haemophilus influenzae [10],1 µg/mL
same,MIC50,Proteus vulgaris,2 µg/mL
same,MIC90,Proteus vulgaris,4 µg/mL
same,MIC50,Burkholderia cepacia,8 µg/mL
same,MIC90,Burkholderia cepacia,16 µg/mL
same,MIC50,Proteus mirabilis,2 µg/mL
same,MIC90,Proteus mirabilis,4 µg/mL
same,MIC50,Acinetobacter baumannii,1 µg/mL
same,MIC90,Acinetobacter baumannii,32 µg/mL
same,MIC50,Haemophilus influenzae [11],0.5 µg/mL
same,MIC90,Haemophilus influenzae [11],0.5 µg/mL
same,MIC50,Providencia rettgeri,2 µg/mL
same,MIC90,Providencia rettgeri,2 µg/mL
same,MIC50,Acinetobacter junii,0.06 µg/mL
same,MIC90,Acinetobacter junii,0.5 µg/mL
same,MIC,Bacteroides uniformis,0.12 µg/mL
same,MIC50,Bacteroides uniformis,0.12 µg/mL
same,MIC90,Bacteroides uniformis,0.25 µg/mL
same,MIC50,[12],1 µg/mL
same,MIC90,[12],32 µg/mL
same,MIC,Serratia marcescens [13],0.5 µg/mL
same,MIC50,Serratia marcescens [13],0.5 µg/mL
same,MIC90,Serratia marcescens [13],2 µg/mL
same,MIC,Escherichia coli [14],0.12 µg/mL
same,MIC50,Escherichia coli [14],0.12 µg/mL
same,MIC90,Escherichia coli [14],0.5 µg/mL
same,MIC50,[15],0.06 µg/mL
same,MIC90,[15],0.5 µg/mL
same,MIC50,Morganella morganii,4 µg/mL
same,MIC90,Morganella morganii,4 µg/mL
same,MIC50,Providencia stuartii,2 µg/mL
same,MIC90,Providencia stuartii,2 µg/mL
same,MIC50,Acinetobacter johnsonii,0.06 µg/mL
same,MIC90,Acinetobacter johnsonii,0.5 µg/mL
same,MIC50,Citrobacter freundii [16],1 µg/mL
same,MIC90,Citrobacter freundii [16],1 µg/mL
same,MIC50,Klebsiella aerogenes [17],1 µg/mL
same,MIC90,Klebsiella aerogenes [17],2 µg/mL
same,MIC,Klebsiella aerogenes [18],0.5 µg/mL
same,MIC50,Klebsiella aerogenes [18],0.5 µg/mL
same,MIC90,Klebsiella aerogenes [18],2 µg/mL
same,MIC,Enterobacter cloacae [19],0.5 µg/mL
same,MIC50,Enterobacter cloacae [19],0.5 µg/mL
same,MIC90,Enterobacter cloacae [19],2 µg/mL
same,MIC50,Acinetobacter lwoffii,0.06 µg/mL
same,MIC90,Acinetobacter lwoffii,0.5 µg/mL
same,MIC50,Pseudomonas aeruginosa,2 µg/mL
same,MIC90,Pseudomonas aeruginosa,32 µg/mL
same,MIC50,Enterobacter cloacae [20],0.5 µg/mL
same,MIC90,Enterobacter cloacae [20],1 µg/mL
same,MIC50,Citrobacter koseri,0.12 µg/mL
same,MIC90,Citrobacter koseri,0.12 µg/mL
same,MIC,Escherichia coli [21],0.12 µg/mL
same,MIC50,Escherichia coli [21],0.12 µg/mL
same,MIC90,Escherichia coli [21],0.25 µg/mL
same,MIC50,Klebsiella pneumoniae [22],1 µg/mL
same,MIC90,Klebsiella pneumoniae [22],16 µg/mL
same,MIC,[23],0.25 µg/mL
same,MIC50,[23],0.25 µg/mL
same,MIC90,[23],1 µg/mL
